According to PubChem BioAssay (NCI):
Values joined by “and” are separate entries in the source; they are usually repeats but may differ in a detail not shown here. Identical values can stand only once.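 Interpolation was linear, between the two tested concentrations surrounding the appropriate level; five concentrations were tested over 48 hours in 96-well plates. The concentration for 50% growth inhibition is given as GI50. TGI denotes the concentration required for complete inhibition of growth.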

Experiments:
Test in all cases: NCI-60 cell line screen, 48 h
786-0 renal = test system: 786-0 renal
SN12C renal = test system: SN12C renal
SF-295 CNS = test system: SF-295 CNS
MDA-N = test system: MDA-N
BT-549 breast = test system: BT-549 breast
K-562 leukemia = test system: K-562 leukemia
OVCAR-4 ovarian = test system: OVCAR-4 ovarian
SK-OV-3 ovarian = test system: SK-OV-3 ovarian
UACC-62 melanoma = test system: UACC-62 melanoma
CAKI-1 renal = test system: CAKI-1 renal
ACHN renal = test system: ACHN renal
HCC-2998 colon = test system: HCC-2998 colon

Compound | TGI (786-0 renal) | TGI (SN12C renal) | TGI (SF-295 CNS) | TGI (MDA-N) | TGI (BT-549 breast) | TGI (K-562 leukemia) | TGI (OVCAR-4 ovarian) | TGI (SK-OV-3 ovarian) | TGI (UACC-62 melanoma) | TGI (CAKI-1 renal) | TGI (ACHN renal) | TGI (HCC-2998 colon) | GI50 (CAKI-1 renal)
C#CCOC(=O)[C@@H](C)c1ccc2cc(OC)ccc2c1 | > 100 µM | > 100 µM | > 100 µM | > 100 µM | > 100 µM | > 100 µM | > 100 µM | > 100 µM | > 100 µM | > 100 µM | > 100 µM | – | –
CCOC(OCC)[C@H](N)[C@@H](O)[C@@H](O)[C@H]1COC(C)(C)O1 | > 100 µM | > 100 µM | > 100 µM | > 100 µM | – | > 100 µM | > 100 µM | > 100 µM | > 100 µM | – | > 100 µM | – | –
Nc1nc(Cc2ccccc2)nc(Cc2ccccc2)c1-c1ccccc1 | 70.5 µM | > 100 µM | > 100 µM | 38.8 µM | 50.9 µM | > 100 µM | > 100 µM | – | 43 µM | 96.1 µM | > 100 µM | > 100 µM | –
N#Cc1c2ccc([N+](=O)[O-])cc2c(=O)n2c1sc1ccccc12 | > 100 µM | > 100 µM | – | > 100 µM | > 100 µM | 29.5 µM | 98.8 µM | – | > 100 µM | > 100 µM | > 100 µM | 38.7 µM | –
ClCCc1ccccc1CC1=NCCc2ccccc21 | > 100 µM | > 100 µM | > 100 µM | – | 97.9 µM | > 100 µM | > 100 µM | > 100 µM | 98.9 µM | 92.4 µM | > 100 µM | 62.5 µM | –
C=C(C1=CC(=O)C(C)(C)O1)[C@@H]1CC=C([C@@H]2CC[C@H]3[C@@]2(C)CC[C@H]2C(C)(C)C(=O)[C@H](OC(=O)CC(C)(O)CC(=O)O)C[C@]32C)[C@H](O)O1 (stereo not given in full) | 24.4 µM | 28 µM | > 75 µM | 30.5 µM | 13.4 µM | > 75 µM | – | 46.9 µM | 23.5 µM | 45.8 µM | 25.4 µM | – | –
Cc1nn(C(=O)c2ccncc2)c2c1C(c1ccc([N+](=O)[O-])cc1)SC(N)=N2 (stereo not given) | > 100 µM | > 100 µM | > 100 µM | > 100 µM | > 100 µM | > 100 µM | > 100 µM | > 100 µM | > 100 µM | – | > 100 µM | – | –
CCOC1=NC(C(F)(F)F)(C(F)(F)F)N=C(N2CCCCC2)O1 | > 100 µM | > 100 µM | > 100 µM | – | – | > 100 µM | > 100 µM | – | > 100 µM | > 100 µM | > 100 µM | – | –
COc1cc(C2SCC(=O)N2NC(=O)c2ccc(NC(C)=O)cc2OC)ccc1O (stereo not given) | > 100 µM | 79.8 µM | 47 µM | > 100 µM | > 100 µM | > 100 µM | > 100 µM | 26.7 µM | > 100 µM | > 100 µM | > 100 µM | – | –
O=C1CN(c2ccccc2)C(=O)CN1CCN1CC(=O)N(c2ccccc2)CC1=O | > 100 µM | > 100 µM | > 100 µM | > 100 µM | > 100 µM | – | > 100 µM | > 100 µM | > 100 µM | > 100 µM | > 100 µM | > 100 µM | –
CS(=O)(=O)CCC(N)P(=O)(O)O (stereo not given) | > 100 µM | > 100 µM | > 100 µM | > 100 µM | > 100 µM | > 100 µM | > 100 µM | > 100 µM | > 100 µM | > 100 µM | > 100 µM | – | –
CN(C(=O)c1ccc(Cl)cc1)C(=S)N1CCN(c2ccccc2)CC1 | > 100 µM | > 100 µM | > 100 µM | > 100 µM | > 100 µM | > 100 µM | > 100 µM | – | > 100 µM | – | > 100 µM | > 100 µM | –
O=C(N[C@@H](Cc1ccccc1)B(O)O)[C@H](Cc1cccc2ccccc12)NC(=O)N1CCOCC1 | 0.271 µM and 0.12 µM | 0.0226 µM and 0.0268 µM | 0.0304 µM and 0.0239 µM | – | 0.00335 µM | 0.0852 µM | 0.0301 µM and 0.204 µM | – | 0.0119 µM and 0.0391 µM | 0.048 µM and 0.18 µM | 24.6 µM | 0.00339 µM | 22.8 nM
O=C(Nc1nccs1)NS(=O)(=O)n1cnc2ccccc21 | > 100 µM | > 100 µM | > 100 µM | – | > 100 µM | – | > 100 µM | > 100 µM | > 100 µM | > 100 µM | > 100 µM | > 100 µM | –
CC1=CC(=O)/C(=C/N2C(=O)CNC2=S)C(=O)O1 | > 100 µM | > 100 µM | > 100 µM | > 100 µM | – | – | > 100 µM | > 100 µM | – | > 100 µM | > 100 µM | > 100 µM | –
CC(C)(C)OC(=O)N1CCC(NC(=O)NC2CCN(C(=O)OC(C)(C)C)CC2)CC1 | > 100 µM | > 100 µM | > 100 µM | > 100 µM | 12.6 µM | – | > 100 µM | – | > 100 µM | > 100 µM | > 100 µM | > 100 µM | –
C(/C=C/Nc1ccc(-c2ccccc2)cc1)=Nc1ccc(-c2ccccc2)cc1 | > 100 µM | > 100 µM | > 100 µM | > 100 µM | > 100 µM | > 100 µM | > 100 µM | > 100 µM | > 100 µM | > 100 µM | > 100 µM | – | –
Cn1c(O)c(C=Nc2ccc(Cl)cc2Cl)c(=O)n(C)c1=O | > 100 µM | > 100 µM | > 100 µM | – | > 100 µM | > 100 µM | > 100 µM | > 100 µM | > 100 µM | > 100 µM | > 100 µM | > 100 µM | –
CCN(CCCl)c1cc(CN(C)C)cc(NC(=O)c2ccc(C(=O)Nc3ccccc3)cc2)c1 | 0.581 µM | 5.21 µM | 12.4 µM | 0.925 µM | – | 8.31 µM | 1.87 µM | 11.1 µM | 4.03 µM | 3.69 µM | – | 2.51 µM | –
CCOc1cc(/C=C2\N=C(c3ccccc3)N(c3nc4ccccc4s3)C2=O)ccc1O | > 100 µM | – | > 100 µM | > 100 µM | – | > 100 µM | > 100 µM | > 100 µM | – | > 100 µM | > 100 µM | 97.3 µM | –
CC1(C)/C(=N\Nc2ccc([N+](=O)[O-])cc2[N+](=O)[O-])C2CCC1C2 (stereo not given) | > 100 µM | > 100 µM | 71.5 µM | > 100 µM | > 100 µM | > 100 µM | > 100 µM | > 100 µM | > 100 µM | > 100 µM | > 100 µM | – | –
